US8501789B2, “Use of salicylaldehyde isonicotinoyl hydrazone (SIH) for protection against retinal disease” (The Trustees of the University of Pennsylvania, priority 2007, dated 2013)
Where two headings read alike, the source gives them in different places.

How the values were obtained:
[1] = test system: ARPE-19 cells; format: cell-based; details: for 5 mM H2O2 cytotoxicity: LDH release and Live/Dead
Procedure: Red indicates dead cells as detected by ethidium bromide homodimer fluorescence. Green indicates live cells as detected by calcein fluorescence;
(§1) Human adult RPE cells (ARPE-19 cell line from ATCC) were cultured until confluent in 24-well Falcon plates in 1:1 DMEM High Glucose with L-Glutamine and Ham's F12 media (Invitrogen, Carlsbad, Calif.) supplemented with 10% FBS (Hyclone, Logan, Utah). For labile iron detection ARPE cells were stably transfected with a pcDNA3.1 plasmid with an IRE-GFP insert (gift of Drs. Sangwon Kim and Sol Snyder, Johns Hopkins) as a reporter for intracellular iron levels. These cells were named iron-reporting ARPE (iRPE) cells. Efficacy of labile iron chelation was tested by adding different concentrations of SIH to the iron-free MEM medium on iRPE cells and assessing decrease in GFP fluorescence as a measure of reduction in intracellular iron levels at the 24 h time point. Epifluorescence microscopy was performed with a Nikon TE-300 microscope (Nikon Inc., Japan) and SpotRT Slider camera (Diagnostic Instruments, Inc., Sterling Heights, Mich.) with ImagePro Plus software, version 4.1 (Media Cybernetics, Silver Spring, Md.).
(§2) To evaluate SIH's cytoprotective properties, SIH at different concentrations was applied to confluent ARPE-19 cells four hrs prior to the addition of H2O2, staurosporine or anti-Fas antibody. Hydrogen peroxide (30% H2O2 from Sigma, St. Louis, Mo.) at final concentration ranging from 1 to 5 mM, Staurosporine (1 mM solution from Sigma) at 100-500 nM final concentration or aFas antibody (Upstate-Millipore, Billerica, Mass.) at 1 μg/mL final concentration were mixed with the indicated concentrations of SIH immediately before applying to ARPE-19 cells. All reagents were dissolved in Minimal Essential Medium (MEM, Invitrogen) as indicated and were applied rapidly and uniformly following two washing steps in HBSS.
Cell death was assayed after 24 hrs using the LDH Release Assay Kit (Roche, Basel, Switzerland). Cytotoxicity was calculated using the ratio between maximum LDH release in 2% Triton X100-treated cells and minimum LDH release in cells incubated in MEM. Visualization of cell death was performed using the LIVE/DEAD Viability/Cytotoxicity kit (Invitrogen).

[2] = test system: ARPE-19 cells; format: cell-based, Human
[3] = test system: ARPE-19 cells; assay: Intracellular ROS generation, dihydrorhodamine 123 fluorescence; format: cell-based, Human
Procedure: Level of ROS generation is detected by dihydrorhodamine 123 (green fluorescence) in cells treated with staurosporine and/or 3 μM SIH as indicated. Mitotracker dye (red fluorescence) indicates location of mitochondria; and
Intracellular ROS generation was measured in cultured cells by using the fluorescent probe dihydrorhodamine 123 (DHR123). Mitochondria were localized with Mitotracker Red 580 (Molecular Probes, Eugene, Oreg.). After 30 min of staurosporine exposure with our without SIH, cells were incubated with staurosporine +/−SIH in the presence of 10 μM DHR123 and 2 μM Mitotracker Red 580 at 37° C. for 15 min. DHR fluoresces and localizes to mitochondria when oxidized by ROS to the positively charged rhodamine 123^33. Mitotracker dye passively diffuses across the plasma membrane and specifically accumulates in active mitochondria.
To test whether iron contributes to this ROS production, and whether a decrease in mitochondrial ROS might be a mechanism of SIH protection, ROS were detected with rhodamine 123 after 30 min of staurosporine treatment. In the presence of ROS, non-fluorescent dihydrorhodamine 123 is converted into highly fluorescent rhodamine 123.

[4] = UV/VIS spectra of SIH, H2O2 and their mixture (chemical interaction); format: physicochemical
[5] = test system: ARPE-19 cells that had accumulated A2E; assay: A2E/blue light-induced cell death, MTT assay; format: cell-based
Procedure: Graphs show ARPE-19 cell viability measured by the MTT assay. Increased absorbance indicates increased viability. (A) Cells were incubated with the indicated concentrations of SIH-MEM for 4 h, irradiated with blue light for 20 min in DPBS-SIH, and incubated in MEM-SIH for 24 hr before performing MTT assay. (B) Cells were pre-treated with MEM-SIH for 4 h, irradiated with blue light for 20 min in DPBS and incubated in MEM for 24 h. (C) Cells were irradiated by blue light for 20 min in DPBS and SIH-MEM was applied immediately after irradiation and maintained for 24 hrs. (D) Cells were irradiated with blue light for 20 min in DPBS and SIH-MEM was applied 1 h after irradiation and maintained for 23 h before performing MTT assay. For all graphs, relative to no SIH, * p<0.05, ** p<0.01, *** p<0.001;
For blue light irradiation experiments ARPE-19 cells devoid of endogenous lipofuscin were grown in complete medium (DMEM with 10% fetal calf serum and supplements) as previously described. At confluence the cells were allowed to accumulate A2E from a 10 μM concentration delivered in the culture medium over a 2 week period.
ARPE-19 cells that had accumulated A2E were treated with SIH in MEM for 4 hrs unless otherwise indicated. The SIH/MEM was subsequently exchanged for DPBS, the cells were irradiated at 430 nm for 20 min and then returned to complete medium and incubated for 24 hrs. Variations on this paradigm included experiments in which exposure to SIH/MEM was continued during illumination at 430 nm and for 24 hr thereafter; and experiments in which cells were not pre-incubated with SIH but instead were treated with SIH/MEM beginning either immediately after irradiation and continuing for 24 hrs or beginning 1 hr after irradiation and continuing for 23 hrs. In all experiments controls included A2E-laden irradiated cells that were not treated with SIH, cells that received no treatment (A2E-free, non-irradiated, incubation with MEM in the absence of SIH) and cells treated only with SIH.
In blue light irradiation experiments cell death was assayed by the 3-(4,5-dimethylthiazol-2-yl)-2,5-diphenyltetrazolium bromide assay, a measure of the ability of healthy cells to cleave the yellow tetrazolium salt MTT to purple formazan crystals. Briefly, following the post-illumination incubation described above, 20 uL of MTT labeling reagent (Roche Diagnostics Corp, Indianapolis, Ind.) was added to 0.2 mL of culture medium in each well and after a 4 hr incubation, the labeling reagent was replaced with 200 uL of solubilization solution for an overnight incubation. After centrifugation at 13,000 rpm for 2 min, supernatants were measured spectrophotometrically. A decrease in the absorbance (570 nm) of reduced MTT was indicative of diminished cellular viability.

[6] = test system: intracellular labile iron levels in ARPE-19 cells stably transfected with the IRE-GFP reporter (iRPE); assay: Labile iron chelation in IRE-GFP iron-reporting ARPE (iRPE) cells, GFP fluorescence; format: cell-based, Human; details: for GFP fluorescence (labile iron level): iRPE cells, 24 h, iron-free MEM
Procedure: Fluorescence intensity indicates relative intracellular iron levels. […] Images are representative of results from 3 independent experiments and taken using identical exposure parameters;
as §1, with “Efficacy of labile iron chelation was tested by adding different concentrations of SIH to the iron-free MEM medium on iRPE cells and assessing decrease in GFP fluorescence as a measure of reduction in intracellular iron levels at the 24 h time point.” left out
To quantify the labile iron pool, an iron-reporting RPE cell line (iRPE) was first generated, wherein fluorescence green fluorescent protein reflects labile iron levels. This was accomplished by making a stable cell line with the plasmid IRE-GFP (gift of Sangwon Kim and Sol Snyder). The iron responsive element (IRE) sequence in the 5′ untranslated region of the mRNA is bound by iron regulatory proteins only when labile iron levels are low, leading to inhibition of GFP translation. The fluorescence of iRPE cells treated with different concentrations of SIH for 24 h was determined (FIG. 2).

[7] = test system: ARPE-19 cells; assay: Anti-Fas antibody (aFas)-induced cell death, LDH release assay; format: cell-based, Human; details: SIH beginning 4 hrs before treatment with aFas
Procedure: All reagents were dissolved in Minimal Essential Medium (MEM, Invitrogen) as indicated and were applied rapidly and uniformly following two washing steps in HBSS. Cell death was assayed after 24 hrs using the LDH Release Assay Kit (Roche, Basel, Switzerland). Cytotoxicity was calculated using the ratio between maximum LDH release in 2% Triton X100-treated cells and minimum LDH release in cells incubated in MEM.

[8] = test system: ARPE-19 cells; assay: Staurosporine-induced cell death, LDH release and LIVE/DEAD assay; format: cell-based, Human
Procedure: as §2, with “(A) Graph of LDH release following exposure of ARPE-19 cells to varying concentrations of staurosporine. […] (B) Graph of LDH release following exposure of ARPE-19 cells to 200 nM staurosporine plus different concentrations of SIH. […] (C) Fluorescence photomicrograph of cells labeled with the LIVE/DEAD assay following treatment with staurosporine and/or SIH as indicated; To” for “To”, “HBSS. Cell death was assayed after 24 hrs using the LDH Release Assay Kit (Roche, Basel, Switzerland). Cytotoxicity was calculated using the ratio between maximum LDH release in 2% Triton X100-treated cells and minimum LDH release in cells incubated in MEM. Visualization of cell death was performed using the LIVE/DEAD Viability/Cytotoxicity kit (Invitrogen).” for “HBSS.”

Work on OO [H2O2, hydrogen peroxide, reference compound] yielded a cell death ([1]; 5 mM H2O2, 24 h, LDH release and Live/Dead assay) of 100%.

In the case of O=C(NN=Cc1ccccc1O)c1ccncc1 [SIH, salicylaldehyde isonicotinoyl hydrazone], the “carbonyl levels in total protein extracts” value ([2]; H2O2-treated cells, 5 μM SIH, 24 h) was “did not affect”, the “carbonyl levels in mitochondria-enriched fractions” value ([2]; cells treated for 24 h with H202, 5 μM SIH) was “more pronounced decrease” and the “carbonyl levels in mitochondria-enriched fractions” value ([2]; cells treated for 24 h with staurosporine, 5 μM SIH) was “more pronounced decrease”. The “carbonyls in total protein extracts” value ([2]; staurosporine-treated cells, 5 μM SIH, 24 h) was “small decrease”, the “staurosporine-induced rhodamine 123 fluorescence (ROS)” value ([3]; 3 μM SIH) was “diminished” and the “changes in spectroscopic properties of SIH-H2O2 mixture compared with SIH and H2O2 alone” value [4] was “did not detect any changes”. For the same compound, the “protection of cell viability (MTT)” value ([5]; SIH applied 1 hr after light exposure) was “partial protection”, the “cell viability (MTT)” value ([5]; SIH before, during, or as late as 1 hr after blue light exposure) was “cell viability was increased” and the “cell viability (MTT)” value ([5]; SIH present before, during, and after light exposure) was “greatest increase in cell viability”. For the same compound, the SIH-mediated toxicity ([5]; cells incubated with SIH but not exposed to A2E or blue light) was “No SIH-mediated toxicity”, the “GFP fluorescence (labile iron level)” value ([6]; 3 μM SIH) was “decreased significantly” and the “GFP fluorescence (labile iron level)” value ([6]; 10 μM SIH) was “decreased significantly”. The “GFP fluorescence (labile iron level)” value ([6]; 50 μM SIH) was “close to the level of untreated control”, the “GFP fluorescence (labile iron level)” value ([6]; 100 μM SIH) was “close to the level of untreated control” and the “GFP fluorescence (labile iron level)” value ([6]; 1 mM SIH) was “decreased slightly”. For the same compound, the iRPE fluorescence levels ([6]; iron-containing medium DMEM-F12 with 10% fetal calf serum) was “decreased the fluorescence”, the “cell death caused by Fas activation (LDH release)” value [7] was “reduced cell death” and the “5 mM H2O2 cytotoxicity” value ([1]; 5 μM SIH before H2O2 and mixed with H2O2, 24 h) was “completely abolished”. For the same compound, the “5 mM H2O2 cytotoxicity” value ([1]; 10 μM SIH before H2O2 and mixed with H2O2, 24 h) was “completely abolished”, the “cytoprotection against H2O2” value ([1]; SIH applied 1 h after H2O2 (data not shown)) was “no protection” and the “cytoprotection against H2O2” value ([1]; SIH applied together with H2O2 but without SIH pre-treatment) was “Diminished cytoprotection”. The “cytoprotection against H2O2” value ([1]; SIH pre-incubated with ferric ammonium citrate in a 2:1 molar ratio (data not shown)) was “no protection”, the “cell viability (LDH release)” value ([8]; SIH 4 h before and through 24 h of 200 nM staurosporine) was “increased in an SIH concentration-dependent manner” and the “cell viability (LDH release)” value ([8]; SIH 4 h before and through 24 h of 500 nm staurosporine (not shown)) was “increased in an SIH concentration-dependent manner”. The “red (dead) cells, live/dead fluorescent imaging” value ([8]; staurosporine plus 5 μM SIH) was “very few or none”, the “red (dead) cells, live/dead fluorescent imaging” value ([8]; staurosporine plus 10 μM SIH) was “very few or none” and the “SIH concentration of greatest cytoprotective effect” value ([8]; staurosporine-induced cell death) was 10 µM.

For CN[C@@H]1C[C@H]2O[C@@](C)([C@@H]1OC)n1c3ccccc3c3c4c(c5c6ccccc6n2c5c31)C(=O)NC4 [staurosporine, reference compound], the “fluorescence of rhodamine 123 (ROS)” value ([3]; 200 nM staurosporine for 30 min, then dihydrorhodamine 123 for 15 min) was “increased fluorescence”, the “fluorescence of rhodamine 123 (ROS)” value ([3]; 500 nM staurosporine) was “greater increase in fluorescence” and the “cell death (LDH release)” value ([8]; 200 nM staurosporine) was “significant cell death”. The “cell death (LDH release)” value ([8]; 500 nM staurosporine) was “significant cell death”.
